These results are taken from patent US7388006B2, “Non-steroidal progesting” (Bayer Schering Pharma AG, priority 2002, dated 2008).

The test system of experiment [1] is pregnancy in ovariectomized rats. The experiment can be described thus: Pregnancy maintenance test in rat. The class given is in vivo. As to conditions: for Maintenance of pregnancy, factor compared to R5020: potency relative to R5020. From the text:
In rats, castration induces termination of pregnancy. Progestins (combined with estrogens) are capable of maintaining pregnancy in castrated animals. However, the degree of pregnancy maintenance in castrated rats is optimal only in a defined dose range. Therefore, higher as well as lower doses generally induce a weaker effect. Accompanying treatment with defined doses of estrone (E1) increases the pregnancy maintaining effect of progestins.
Pregnant rats (Wistar Han, SPF) of 190 to 220 g (5 to 8 animals per dose) are ovariectomized on day 8 of pregnancy, 2 hours after the first substance administration. From day 8 to day 14, rats are daily treated with test progestin in combination with a standard dose of E1. One day later, animals are killed with carbon dioxide. For each animal, the number of living and dead fetuses is determined according to the heartbeat of the embryos. In case of empty uteri, the number of implantation sites is determined by means of staining with a 10% ammonium sulfide solution.
S.c. (subcutaneous) application: The test progestin is dissolved in benzyl benzoate/castor oil (1+4 v/v), and the daily dose is administered in a volume of 1 ml/kg body weight.
P.o. (peroral) application: The test progestin is suspended in a carrier liquid (85 mg Myrj^R in 100 ml 0.9% w/v NaCl solution), and the daily dose is administered in a volume of 2 ml/kg body weight.
I.p. (intraperitoneal) application: The test progestin is dissolved in propylene glycol and charged in miniature osmotic pumps (type 2001, 1.0 μl/h, 7 days), which are placed in the abdominal cavity of the rat.
The standard dose of estrone is 0.005 mg/kg body weight s.c. and is dissolved in benzyl benzoate/castor oil ([…]).
It is determined the pregnancy maintenance per animal [%], the pregnancy maintenance per dose (median of single values) and the EC50 (dose, at which pregnancy is maintained in 50% of the animals; 100% corresponds to control animals that are not ovariectomized). The results of the test are further discussed below in c).

The target in experiment [2] is T1, glucocorticoid receptor (GR) (Homo sapiens, UniProt P04150).
T1 sequence (P04150 1-777): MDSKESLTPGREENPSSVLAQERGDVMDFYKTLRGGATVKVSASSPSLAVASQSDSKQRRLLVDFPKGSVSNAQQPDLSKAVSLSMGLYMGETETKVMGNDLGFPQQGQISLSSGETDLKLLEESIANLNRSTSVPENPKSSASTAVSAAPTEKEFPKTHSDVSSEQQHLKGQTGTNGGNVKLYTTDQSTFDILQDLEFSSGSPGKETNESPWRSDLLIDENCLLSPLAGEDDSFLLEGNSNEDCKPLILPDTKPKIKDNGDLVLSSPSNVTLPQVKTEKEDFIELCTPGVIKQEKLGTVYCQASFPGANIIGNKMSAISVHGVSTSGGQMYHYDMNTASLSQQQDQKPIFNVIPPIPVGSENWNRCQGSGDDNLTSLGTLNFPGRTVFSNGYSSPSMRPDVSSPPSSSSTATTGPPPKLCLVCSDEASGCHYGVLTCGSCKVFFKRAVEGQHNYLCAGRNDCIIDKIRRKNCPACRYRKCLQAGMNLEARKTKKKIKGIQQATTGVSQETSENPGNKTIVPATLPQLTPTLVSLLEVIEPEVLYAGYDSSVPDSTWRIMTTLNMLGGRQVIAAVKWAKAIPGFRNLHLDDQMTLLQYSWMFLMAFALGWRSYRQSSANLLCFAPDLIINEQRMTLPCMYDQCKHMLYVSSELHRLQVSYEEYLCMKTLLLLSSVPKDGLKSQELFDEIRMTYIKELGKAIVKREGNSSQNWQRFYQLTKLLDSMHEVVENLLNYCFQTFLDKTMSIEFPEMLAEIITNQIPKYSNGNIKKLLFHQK
The experiment can be described thus: Affinity for the glucocorticoid receptor. It is filed as binding.

For the compound `O=C1OCc2cc(NC(=O)C(O)(CC3(c4cc(C(F)(F)F)ccc4F)CC3)C(F)(F)F)ccc21` (single isomer, unassigned; (+)) [((+)-1), (+)-5-{2-hydroxy-3-[1-(2-fluoro-5-trifluoromethylphenyl)-cyclopropyl]-2-trifluoromethyl-propionylamino}-phthalide], the “Androgenic activity in the pregnancy maintenance test” value in experiment [1] (dose 100 times higher than the dose required for maintaining pregnancy) is given as “no androgenic activity”. Moreover, in experiment [1] (rat), the “Pregnancy-maintaining activity EC50 value” worked out at 12 µg/kg/day and the “Maintenance of pregnancy, factor compared to R5020” value is reported as “eight times as potent”. Moreover, in experiment [1] (rat, listed as ((+)−1)), the “Maintenance of pregnancy, factor compared to R5020” value worked out at 8. Moreover, in experiment [2], the “Affinity for the glucocorticoid receptor (GR)” value is recorded as “very high affinity”.
